Consider eight compounds from ChEMBL document CHEMBL5465560, “Selectivity Literature for EUbOPEN Chemogenomic Library” (2024).

pIC50: −log10 of the molar value. A value given as a limit tells only on which side of the number the result lay.

In test [1] the target is Serine/threonine-protein kinase Chk2 (Homo sapiens) (UniProt O96017). As to the kind of experiment: Selectivity interaction (KinomeScan (DiscoverX)) EUB0000595a CHEK2. The settings on record: at 10 µM.
The target of test [2] is Tyrosine-protein kinase Fyn (Homo sapiens) (UniProt P06241). As to the kind of experiment: Selectivity interaction (KinomeScan (DiscoverX)) EUB0001619a FYN. The settings on record: at 1 µM.
Sequence of Tyrosine-protein kinase Fyn (Homo sapiens) (P06241 2-537 limits assumed): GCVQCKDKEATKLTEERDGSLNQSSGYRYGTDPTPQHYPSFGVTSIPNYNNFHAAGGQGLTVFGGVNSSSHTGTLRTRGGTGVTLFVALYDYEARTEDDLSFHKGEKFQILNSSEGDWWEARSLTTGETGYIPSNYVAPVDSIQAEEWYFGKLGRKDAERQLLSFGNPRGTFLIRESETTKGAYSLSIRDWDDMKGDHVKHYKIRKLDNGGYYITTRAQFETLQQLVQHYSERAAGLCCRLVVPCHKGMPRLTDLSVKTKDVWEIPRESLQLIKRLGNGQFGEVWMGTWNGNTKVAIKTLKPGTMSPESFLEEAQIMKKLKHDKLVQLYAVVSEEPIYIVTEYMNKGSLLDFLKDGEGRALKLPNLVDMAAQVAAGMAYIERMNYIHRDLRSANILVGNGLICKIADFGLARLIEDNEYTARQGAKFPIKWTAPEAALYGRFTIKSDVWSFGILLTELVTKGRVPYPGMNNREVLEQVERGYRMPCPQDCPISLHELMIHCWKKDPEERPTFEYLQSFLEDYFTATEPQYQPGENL
Test [3] has as its target T1, Eukaryotic elongation factor 2 kinase (Homo sapiens) (UniProt O00418).
T1 sequence (whole entry): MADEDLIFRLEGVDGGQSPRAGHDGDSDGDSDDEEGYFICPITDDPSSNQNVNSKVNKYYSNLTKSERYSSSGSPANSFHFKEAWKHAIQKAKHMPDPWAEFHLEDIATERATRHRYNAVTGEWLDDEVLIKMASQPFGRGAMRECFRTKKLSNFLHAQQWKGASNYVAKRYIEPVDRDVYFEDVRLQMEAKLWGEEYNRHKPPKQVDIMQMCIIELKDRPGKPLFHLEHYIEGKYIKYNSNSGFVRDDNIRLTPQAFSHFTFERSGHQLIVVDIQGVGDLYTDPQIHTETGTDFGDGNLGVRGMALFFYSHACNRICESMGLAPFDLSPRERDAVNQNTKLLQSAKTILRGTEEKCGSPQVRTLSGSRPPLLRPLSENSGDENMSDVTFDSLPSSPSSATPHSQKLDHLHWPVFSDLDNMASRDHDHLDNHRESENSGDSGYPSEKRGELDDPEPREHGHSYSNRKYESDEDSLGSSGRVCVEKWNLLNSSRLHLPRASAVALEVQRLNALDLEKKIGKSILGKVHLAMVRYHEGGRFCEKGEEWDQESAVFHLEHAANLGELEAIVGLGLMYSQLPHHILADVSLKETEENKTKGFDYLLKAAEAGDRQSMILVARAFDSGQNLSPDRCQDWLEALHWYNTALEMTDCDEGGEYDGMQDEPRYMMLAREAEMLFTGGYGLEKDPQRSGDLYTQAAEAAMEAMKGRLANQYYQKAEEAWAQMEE
As to the kind of experiment: Selectivity interaction (SelectScreen profiling (Invitrogen)) EUB0000607a EEF2K. Particulars: at 2 µM.

In test [4] the target is T2, Dual specificity mitogen-activated protein kinase kinase 6 (Homo sapiens) (UniProt P52564).
T2 sequence (whole entry): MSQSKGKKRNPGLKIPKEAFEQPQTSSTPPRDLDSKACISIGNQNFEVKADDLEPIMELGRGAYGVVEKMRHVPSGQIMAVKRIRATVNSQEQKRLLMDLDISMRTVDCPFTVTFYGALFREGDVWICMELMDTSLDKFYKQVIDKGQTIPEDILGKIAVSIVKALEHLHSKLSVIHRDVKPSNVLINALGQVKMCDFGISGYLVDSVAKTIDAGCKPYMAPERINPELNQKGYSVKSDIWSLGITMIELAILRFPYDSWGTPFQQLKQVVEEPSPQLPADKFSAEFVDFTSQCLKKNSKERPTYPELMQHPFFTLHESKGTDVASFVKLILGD
As to the kind of experiment: Selectivity interaction (ActivX KiNativ screen (kinase selectivity in THP-1 cell lysates)) EUB0000639a MAP2K6. The format is subcellular. The settings on record: lysate, at 0.2 µM.

Test [5] deals with Calcium/calmodulin-dependent protein kinase type 1G (Homo sapiens) (UniProt Q96NX5). As to the kind of experiment: Selectivity interaction (Kinase panel (DSF assay)) EUB0001559a CAMK1G. In general terms: DSF heats the sample and reads unfolding from a dye or from intrinsic fluorescence.
Sequence of Calcium/calmodulin-dependent protein kinase type 1G (Homo sapiens) (Q96NX5 whole entry): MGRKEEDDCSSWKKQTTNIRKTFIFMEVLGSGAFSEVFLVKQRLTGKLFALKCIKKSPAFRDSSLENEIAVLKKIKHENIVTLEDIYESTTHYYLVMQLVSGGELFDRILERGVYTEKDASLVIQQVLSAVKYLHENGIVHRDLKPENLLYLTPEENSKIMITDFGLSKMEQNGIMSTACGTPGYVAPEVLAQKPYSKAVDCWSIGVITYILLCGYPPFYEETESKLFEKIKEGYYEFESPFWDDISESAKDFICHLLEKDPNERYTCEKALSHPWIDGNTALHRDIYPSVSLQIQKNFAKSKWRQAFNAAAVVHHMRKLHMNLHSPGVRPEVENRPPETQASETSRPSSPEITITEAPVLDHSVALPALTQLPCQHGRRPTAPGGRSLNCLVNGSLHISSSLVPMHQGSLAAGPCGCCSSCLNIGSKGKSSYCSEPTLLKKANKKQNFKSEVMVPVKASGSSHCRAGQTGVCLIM
Test [6] deals with Eukaryotic elongation factor 2 kinase (Homo sapiens, UniProt O00418).
For test [7], the target named is T3, Serine/threonine-protein kinase D3 (Homo sapiens) (UniProt O94806).
T3 sequence (whole entry): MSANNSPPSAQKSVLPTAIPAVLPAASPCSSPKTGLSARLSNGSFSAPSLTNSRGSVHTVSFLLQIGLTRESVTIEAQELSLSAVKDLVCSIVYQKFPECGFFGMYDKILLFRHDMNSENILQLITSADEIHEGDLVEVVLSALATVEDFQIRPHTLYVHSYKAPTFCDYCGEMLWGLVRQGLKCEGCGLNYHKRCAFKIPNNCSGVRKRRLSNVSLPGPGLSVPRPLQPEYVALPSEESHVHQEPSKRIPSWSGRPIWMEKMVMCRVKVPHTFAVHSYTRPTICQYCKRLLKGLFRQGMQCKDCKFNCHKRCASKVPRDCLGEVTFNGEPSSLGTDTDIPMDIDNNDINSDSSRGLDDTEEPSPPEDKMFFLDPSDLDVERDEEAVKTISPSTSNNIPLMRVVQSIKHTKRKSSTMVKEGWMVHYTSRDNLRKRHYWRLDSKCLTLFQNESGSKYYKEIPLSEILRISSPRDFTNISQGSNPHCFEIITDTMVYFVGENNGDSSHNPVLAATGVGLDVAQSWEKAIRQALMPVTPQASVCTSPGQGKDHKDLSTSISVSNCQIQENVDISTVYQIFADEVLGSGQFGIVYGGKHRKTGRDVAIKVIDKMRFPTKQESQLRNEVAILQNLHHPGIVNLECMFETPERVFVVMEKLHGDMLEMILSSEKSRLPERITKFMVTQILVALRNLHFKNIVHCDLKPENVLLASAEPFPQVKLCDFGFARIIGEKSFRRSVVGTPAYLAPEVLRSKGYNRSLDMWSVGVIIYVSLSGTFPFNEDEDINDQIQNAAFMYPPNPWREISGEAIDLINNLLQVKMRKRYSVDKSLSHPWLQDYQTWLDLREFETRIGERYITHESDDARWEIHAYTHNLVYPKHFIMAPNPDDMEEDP
As to the kind of experiment: Selectivity interaction (KinomeScan (DiscoverX)) EUB0001049a PRKD3. Particulars: at 1 µM.

In test [8] the target is T4, Cytoplasmic tyrosine-protein kinase BMX (Homo sapiens) (UniProt P51813).
T4 sequence (whole entry): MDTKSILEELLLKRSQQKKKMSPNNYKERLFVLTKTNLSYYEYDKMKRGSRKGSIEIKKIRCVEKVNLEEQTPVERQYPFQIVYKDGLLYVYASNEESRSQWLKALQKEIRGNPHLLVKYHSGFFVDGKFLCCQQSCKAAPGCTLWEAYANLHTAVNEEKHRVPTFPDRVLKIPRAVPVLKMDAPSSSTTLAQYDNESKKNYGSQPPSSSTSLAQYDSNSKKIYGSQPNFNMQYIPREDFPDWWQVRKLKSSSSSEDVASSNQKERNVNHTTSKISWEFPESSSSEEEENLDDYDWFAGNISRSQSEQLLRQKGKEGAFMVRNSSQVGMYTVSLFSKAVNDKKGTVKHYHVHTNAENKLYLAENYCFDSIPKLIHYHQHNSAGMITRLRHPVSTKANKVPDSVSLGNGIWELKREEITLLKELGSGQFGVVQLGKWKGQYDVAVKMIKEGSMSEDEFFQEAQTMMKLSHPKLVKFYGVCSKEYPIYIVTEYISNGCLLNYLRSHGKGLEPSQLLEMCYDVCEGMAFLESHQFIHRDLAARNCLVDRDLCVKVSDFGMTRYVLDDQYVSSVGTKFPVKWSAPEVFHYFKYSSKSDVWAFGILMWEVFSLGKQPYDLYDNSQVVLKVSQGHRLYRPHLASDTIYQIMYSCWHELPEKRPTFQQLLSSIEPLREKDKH
As to the kind of experiment: Selectivity interaction (Kinase panel (DSF assay)) EUB0001558a BMX.

Sequence of Serine/threonine-protein kinase Chk2 (Homo sapiens) (O96017 whole entry): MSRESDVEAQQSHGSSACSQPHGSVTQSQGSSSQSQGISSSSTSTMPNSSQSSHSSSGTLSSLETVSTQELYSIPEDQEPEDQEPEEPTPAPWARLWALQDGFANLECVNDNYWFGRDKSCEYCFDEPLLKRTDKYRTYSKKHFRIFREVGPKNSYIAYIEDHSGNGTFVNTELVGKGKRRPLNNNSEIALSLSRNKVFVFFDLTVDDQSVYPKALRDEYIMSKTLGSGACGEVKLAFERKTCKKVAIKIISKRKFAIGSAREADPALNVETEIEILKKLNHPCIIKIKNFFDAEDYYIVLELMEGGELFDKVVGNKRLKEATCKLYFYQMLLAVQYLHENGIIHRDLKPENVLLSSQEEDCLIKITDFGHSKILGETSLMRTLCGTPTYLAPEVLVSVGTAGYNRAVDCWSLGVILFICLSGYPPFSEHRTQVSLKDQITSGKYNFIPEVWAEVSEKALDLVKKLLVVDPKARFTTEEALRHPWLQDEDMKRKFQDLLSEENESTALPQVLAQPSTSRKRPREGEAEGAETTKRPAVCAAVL

For the compound `COCC(=O)NC/C=C/c1ccc2ncnc(Nc3ccc(Oc4ccc(C)nc4)c(C)c3)c2c1` [CP-724714], in test [1], the % of control worked out at 55%.

Regarding `N#Cc1cccc(-c2c[nH]c3ncnc(N4CCOCC4)c23)c1`, the % of control in test [2] came out at 86%.

On to `CNC(=O)Nc1ccc(-c2nc(N3CC4CCC(C3)O4)c3cnn(C4CCC5(CC4)OCCO5)c3n2)cc1`, for which the % of inhibition in test [3] was determined as 1%.

With `CC[C@@H]1[C@H](F)C(=O)N[C@@H]1COc1nccc2cc(C(N)=O)c(OC)cc12` [ZIMLOVISERTIB], in test [4], the % of inhibition amounted to 12.8%.

In the case of `CN(C(=O)c1cnn2cccnc12)c1cc2c(cc1N1CCOCC1)C(=O)N(C[C@@H](F)C(C)(C)O)C2`, the dTM in test [5] was -0.6 K.

`CCc1cccc(CC)c1NC(=O)c1nn(C)c2c1CCc1cnc(Nc3ccc(C(=O)NC4CCN(C)CC4)cc3OC(F)(F)F)nc1-2` gave a pIC50 in test [6] of less than 5.00.

In test [7], `COc1cc(Nc2nc(C)cc(-c3cnn4nc(OC)ccc34)n2)cc(C(F)(F)F)c1` yielded a % of control of 100%.

In the case of `CC(C)(O)[C@H](F)CN1Cc2cc(NC(=O)c3cnn4cccnc34)c(N3CCOCC3)cc2C1=O`, the dTM in test [8] is 0.2 K.

In general, pIC50 refers to the negative decadic logarithm of the IC50, by convention in mol/L. Lower therefore signals a high IC50.
